This test has as its target T1, human DGAT1 (Homo sapiens, UniProt O75907).
T1 construct: FLAG (N); made in house; host or cells: SF9 insect cells (pFastBac baculovirus); total cell membranes
T1 sequence (O75907 1-488): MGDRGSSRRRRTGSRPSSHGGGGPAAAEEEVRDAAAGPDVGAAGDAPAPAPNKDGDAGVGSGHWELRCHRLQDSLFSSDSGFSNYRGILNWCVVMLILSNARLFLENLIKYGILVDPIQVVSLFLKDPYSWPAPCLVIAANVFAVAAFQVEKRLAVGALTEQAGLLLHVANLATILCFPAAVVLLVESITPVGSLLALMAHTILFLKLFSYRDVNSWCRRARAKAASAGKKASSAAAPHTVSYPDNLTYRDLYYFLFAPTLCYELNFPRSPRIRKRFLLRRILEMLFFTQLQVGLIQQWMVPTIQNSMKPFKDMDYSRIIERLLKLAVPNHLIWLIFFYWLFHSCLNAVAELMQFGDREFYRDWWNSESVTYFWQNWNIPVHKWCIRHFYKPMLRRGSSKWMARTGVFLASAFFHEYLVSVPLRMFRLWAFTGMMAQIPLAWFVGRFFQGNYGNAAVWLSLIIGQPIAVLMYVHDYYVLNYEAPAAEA
Description: Inhibition of DGAT1 activity, FlashPlate assay with DGAT1 membrane preparations and substrate micelles. Format: biochemical. The note with it: pIC50 = -logIC50, IC50 values expressed in M. From the text: A) Measurement of Inhibition of DGAT1 Activity by the Present Compounds
The inhibiting activity of the present compounds on DGAT1 activity was screened in a single well procedure assay using DGAT1 comprising membrane preparations and DGAT1 substrate comprising micelles and determining formed radio-active triacylglycerol coming in close proximity of a flashplate surface by radio luminescence.
Said assay is described in full detail in WO2006/067071, the content of which is incorporated herein by reference.
By DGAT1 activity is meant the transfer of coenzyme A activated fatty acids to the 3-position of 1,2-diacylglycerols, thus forming a triglyceride molecule, by enzyme DGAT1.
human DGAT1 (NM012079.2) was cloned into the pFastBac vector, containing translation start, a FLAG-tag at the N-terminus as described in literature and a viral Kozak sequence (AAX) preceding the ATG to improve expression in insect cells. Expression was done as described in literature (Cases, S., Smith, S. J., Zheng, Y., Myers H. M., Lear, S. R., Sande, E., Novak, S., Collins, C., Welch, C. B., Lusis, A. J., Erickson, S. K. and Farese, R. V. (1998) Proc. Natl. Acad. Sci. USA 95, 13018-13023.) using SF9 cells.
72 h transfected SF9 cells were collected by centrifugation (13000 rpm-15 min-4° C.) and lysed in 2×500 ml lysisbuffer (0.1M Sucrose, 50 mM KCl, 40 mM KH2PO4, 30 mM EDTA pH 7.2. Cells were homogenized by cell disruptor. After centrifugation 1380 rpm-15 min-4° C. (SN discarded), pellet was resuspended in 500 ml lysisbuffer and total cell membranes collected by ultracentrifugation at 34000 rpm(100 000 g) for 60 min (4° C.). The collected membranes were resuspended in lysis buffer, divided in aliquots and stored with 10% glycerol at −80° C. until use.
Add 1 ml dioleoyl-sn-glycerol (10 mg/ml) to 10 ml of L-α-phosphatidylcholine (1 mg/ml) and 10 ml of L-α-phosphatidyl-L-serine (1 mg/ml) in a thick glass recipient. Evaporate under nitrogen and put on ice for 15 minutes. Reconstitute in 10 ml Tris/HCl (10 mM, pH 7.4) by sonication on ice. The sonification process consists of sonification cycles of 10 seconds in the sonification bath followed by 10 seconds cool down on ice and repeating this sonification cycle till a homogeneous solution is obtained (takes about 15 minutes). The thus obtained micelles are stored at −20° C. till later use and contain DAG at a final concentration of 1.61 mM.
c) Substrate mix (for 1 384 well plate=3840 μl) • 612 μl micelles stock (51 μM final) • 16.6 μl oleoylCoA 9.7 mM • 23 μl [^3H]-oleoylCoA (49 Ci/mmol, 500 μCi/ml) • 3188.4 μl Tris pH 7.4, 10 mM
d) Enzyme mix (for 1 384 well plate=3520 μl) (5 μg/ml) • Add 11.73 μl of DGAT membrane stock (1500 μg/ml stock) to 3508 μl assay buffer.
e) Stop mix (for 1 384 well plate=7.68 ml) (250 mM) • Add 384 μl of N-ethylmaleimide (5M) to 3.456 ml DMSO 100%, and further dilute 3.84 ml of said solution with 3.84 ml DMSO 10%.
DGAT activity in membrane preparations was assayed in 50 mM Tris-HCl (pH 7.4), 150 mM MgCl2, 1 mM EDTA and 0.2% BSA, containing 50 μM DAG, 32 μg/ml PC/PS and 8.4 μM [^3H]-oleoylCoA (at a specific activity of 30 nCi/well) in a final volume of 50 μl in 384-well format using the red shifted Basic Image FlashPlate™ (Perkin Elmer Cat.No. SMP400).
In detail, 10 μl enzyme mix and 10 μl substrate mix were added to 30 μl of assay buffer, optionally in the presence of 1 μl DMSO (blank and controls) or 1 μl of the compound to be tested. This reaction mixture was incubated for 120 minutes at 37° C. and the enzymatic reaction stopped by adding 20 μl of the stop mix. The plates were sealed and the vesicles allowed to settle overnight at room temperature. Plates were centrifuged for 5 minutes at 1500 rpm and measured in Leadseeker. […]

Molecule `COc1ccc(CC(=O)Nc2ccc(N3CCN(C(=O)Cc4c(Cl)cc(CN5CCCC5)cc4Cl)CC3)cc2)cc1` [Compound 351] had an IC50 of 245 nM.
Under `C=CCC(N)C(=O)Nc1ccc(C2CCN(C(=O)Nc3c(Cl)cccc3Cl)CC2)cc1` (stereo not drawn) [Compound 146] stands 10500 nM; under `O=C(CCCc1ccccc1)Nc1ccc(N2CCN(C(=O)C(O)c3c(F)cccc3F)CC2)cc1` (stereo not drawn) [Compound 330], 200 nM; under `COc1ccc(CC(=O)Nc2ccc(N3CCN(C(=O)Oc4c(Cl)cccc4Cl)CC3)cc2)cc1` [Compound 308], 31.6 nM.
Under `COc1ccc(CC(=O)Nc2ccc(N3CCN(C(=O)Nc4c(Cl)cc(OC)cc4OC)CC3)cc2)cc1` [Compound 191] stands 44.7 nM; under `O=C(Cc1ccsc1)Nc1ccc(C2CCN(C(=O)Nc3c(Cl)cccc3Cl)CC2)cc1` [Compound 132], 44.7 nM.
The result for `CCCCC(=O)Nc1ccc(N2CCN(C(=O)Nc3c(Cl)cccc3Cl)CC2)cc1` [Compound 140] reads 19.1 nM.
With `Cc1ccc(CC(=O)Nc2ccc(N3CCN(C(=O)Nc4cccc5ccccc45)CC3)cc2)c(C)c1` [Compound 38], the IC50 was 490 nM.
Under `O=C(CCCc1ccccc1)Nc1ccc(N2CCN(C(=O)C(O)c3ccc(F)cc3F)CC2)cc1` (stereo not drawn) [Compound 325] stands 115 nM; under `Cc1ccc(C)c(N2CCN(CC(=O)Nc3ccc(C4CCN(C(=O)Nc5c(Cl)cccc5Cl)CC4)cc3)CC2)c1` [Compound 104], 126 nM.
The result for `C=CCNCC(=O)Nc1ccc(C2CCN(C(=O)Nc3c(Cl)cccc3Cl)CC2)cc1` [Compound 20] reads 575 nM.
The result for `COCCN(C)CC(=O)Nc1ccc(C2CCN(C(=O)Nc3c(Cl)cccc3Cl)CC2)cc1` [Compound 110] reads 1410 nM; that for `O=C(CNCc1ccc(F)cc1)Nc1ccc(C2CCN(C(=O)Nc3c(Cl)cccc3Cl)CC2)cc1` [Compound 118], 347 nM; that for `O=C(CN1CCOCC1)Nc1ccc(C2CCN(C(=O)Nc3c(Cl)cccc3Cl)CC2)cc1` [Compound 111], 1200 nM.
Regarding `NCCC(=O)Nc1ccc(C2CCN(C(=O)Nc3c(Cl)cccc3Cl)CC2)cc1` [Compound 150], the IC50 was 6920 nM.
The result for `O=C(CNCc1ccco1)Nc1ccc(C2CCN(C(=O)Nc3c(Cl)cccc3Cl)CC2)cc1` [Compound 119] reads 389 nM; that for `COCCN1CCN(C(=O)c2cc(Cl)c(NC(=O)N3CCN(c4ccc(NC(=O)CCCc5ccccc5)cc4)CC3)c(Cl)c2)CC1` [Compound 275], 4.17 nM.
The result for `COc1ccc(NC(=O)N2CCN(c3ccc(NC(=O)CCCc4ccccc4)cc3)CC2)c([N+](=O)[O-])c1` [Compound 74] reads 174 nM; that for `CC(N)c1cc(Cl)c(NC(=O)N2CCN(c3ccc(NC(=O)CCCc4ccccc4)cc3)CC2)c(Cl)c1` (stereo not drawn) [Compound 55], 10.2 nM.
The result for `O=C(NCc1ccccc1F)c1ccc(N2CCN(C(=O)Cc3c(Cl)cccc3Cl)CC2)cc1` [Compound 249] reads 162 nM.
Consider `CN(C)CC(=O)Nc1ccc(C2CCN(C(=O)Nc3c(Cl)cccc3Cl)CC2)cc1` [Compound 109], for which the IC50 is 2340 nM.
The result for `CCOC(=O)c1ccc(N2CCCN(CC(=O)Nc3ccc(C4CCN(C(=O)Nc5c(Cl)cccc5Cl)CC4)cc3)CC2)cc1` [Compound 101] reads 138 nM; that for `COc1ccc(CC(=O)Nc2ccc(N3CCN(C(=O)Nc4c(Cl)cc(OC)cc4Cl)CC3)cc2)cc1` [Compound 15], 4.57 nM; that for `O=C(CNCc1ccccc1)Nc1ccc(C2CCN(C(=O)Nc3c(Cl)cccc3Cl)CC2)cc1` [Compound 117], 214 nM.
As for `COc1ccc(CC(=O)Nc2ccc(N3CCN(C(=O)C(N)c4ccccc4Cl)CC3)cc2)cc1` (stereo not drawn) [Compound 337], 2450 nM corresponded to half-maximal inhibition (IC50).
The result for `O=C(CNc1ccccc1)Nc1ccc(C2CCN(C(=O)Nc3c(Cl)cccc3Cl)CC2)cc1` [Compound 100] reads 87.1 nM; that for `CC1CN(CC(=O)Nc2ccc(C3CCN(C(=O)Nc4c(Cl)cccc4Cl)CC3)cc2)CC(C)O1` (stereo not drawn) [Compound 98], 50.1 nM.

The record behind these values is US8981094B2, “Piperidine/piperazine derivatives” (Janssen Pharmaceutica N.V., priority 2007, dated 2015).
